In patent publication US6664235B1, “Medicaments comprising sialic acid derivatives as active ingredients” (priority 1999, dated 2003):
Like-named read-outs stand apart in the source and are kept apart here.

Columns and labels:
[1] = target: Clostridium perfringens sialidase (Clostridium perfringens, UniProt A0A0H2YQR1); format: biochemical
[2] = Test of resistance to acid hydrolysis (1H NMR); settings: for half-life: 1.0 N D2SO4/D2O, pH 1.37
[3] = tested on: sialidase of influenza virus A/duck/47/5/76 (H7N2); format: biochemical, avian isolate
[4] = tested on: sialidase of influenza virus A/duck/44/3/76 (H11N3); format: biochemical, avian isolate
[5] = tested on: sialidase of influenza virus A/duck/36/4/76 (H1N1); format: biochemical, avian isolate; settings: read-out: Inhibitory activity (IC50, μM) 4-MU-Neu5Ac as substrate
[6] = tested on: sialidase of influenza virus A/duck/86/1/76 (H9N2); format: biochemical, avian isolate
[7] = tested on: sialidase of influenza virus A/Singapore/1/57 (H2N2); format: biochemical, human isolate; settings: read-out: Inhibitory activity (IC50, μM) 4-MU-Neu5Ac as substrate
[8] = tested on: sialidase of influenza virus A/duck/13/2/76 (H6N1); format: biochemical, avian isolate
[9] = tested on: sialidase of influenza virus A/duck/33/3/76 (H10N1); format: biochemical, avian isolate
[10] = tested on: influenza virus A/Aichi/2/68 (H3N2) strain; format: cell-based; settings: read-out: IC50 of prevention of cytopathic effects, late stage
[11] = tested on: sialidase of influenza virus A/swine/Italy/309/83 (H3N2); format: biochemical, swine isolate
[12] = target: sialidase of influenza virus A/PR/8/34 (H1N1) (Influenza A virus, UniProt P03468)
[13] = tested on: sialidase of influenza virus A/duck/849/3/80 (H4N1); format: biochemical, avian isolate
[14] = tested on: sialidase of influenza virus A/duck/862/5/80 (H12N5); format: biochemical, avian isolate
[15] = tested on: influenza virus A/Aichi/2/68 (H3N2) strain; format: cell-based; settings: read-out: IC50, early stage of infection
[16] = tested on: sialidase of influenza virus A/swine/Hokkaido/2/81 (H1N1); format: biochemical, swine isolate; settings: read-out: Inhibitory activity (IC50, μM) Neu5Ac-DSPE as substrate
[17] = tested on: influenza virus A/PR/8/34 (H1N1) hemagglutinin; experiment: Hemagglutination inhibitory assay with human erythrocytes; format: cell-based; settings: lowest concentration that completely inhibited agglutination; viruses 2^4 HA units, 4° C., 1 hour
[18] = tested on: sialidase of influenza virus A/duck/24/5/76 (H3N2); format: biochemical, avian isolate
[19] = tested on: sialidase of influenza virus A/duck/273/8/78 (H2N2); format: biochemical, avian isolate
[20] = tested on: sialidase of influenza virus A/Aichi/2/68 (H3N2); format: biochemical, human isolate
[21] = tested on: influenza virus A/Aichi/2/68 (H3N2) strain; experiment: Inhibition of infection of influenza virus to MDCK cells (LDH release, cytopathic effect); format: cell-based; settings: LDH released from infected cells
[22] = tested on: influenza virus A/Aichi/2/68 (H3N2); format: binding
[23] = read-out: Inhibitory activity (IC50, μM) 4-MU-Neu5Ac as substrate
[24] = read-out: Inhibitory activity (IC50, μM) Neu5Ac-DSPE as substrate

CC(=O)NC1C(O)C(O)C(Oc2ccc([N+](=O)[O-])cc2)(C(=O)O)OC1C(O)C(O)CO (centres unmarked) [Compound 3]
Ki (M) NA (C. perfringens) [1]: Very weak
half-life [2]: 23 h

CC(=O)NC1C(O)C(F)C(Oc2ccc([N+](=O)[O-])cc2)(C(=O)O)OC1C(O)C(O)CO (centres unmarked) [Compound 5]
half-life [2]: 48 h

CCCCCCCCCCCCCCCCCC(=O)CC(COC(=O)CCCCCCCCCCCCCCCCC)COP(=O)(O)OCCNCCOC1(C(=O)O)OC(C(O)C(O)CO)C(NC(C)=O)C(O)C1F (centres unmarked) [Compound 9]
IC50 [3, 23]: 200 µM
IC50 [3, 24]: 150 µM
IC50 [4, 23]: 250 µM
IC50 [4, 24]: 75 µM
IC50 [5]: 125 µM
IC50 [6, 23]: 180 µM
IC50 [6, 24]: 125 µM
IC50 [7]: 15.6 µM
IC50 [8, 23]: 150 µM
IC50 [8, 24]: 180 µM
IC50 [9, 23]: 500 µM
IC50 [9, 24]: 250 µM
IC50 [10]: ~40 µM
IC50 [11, 23]: 125 µM
IC50 [11, 24]: 150 µM
virus sialidase activity inhibition [12]: completely inhibited
IC50 [12, 24]: 31.3 µM
IC50 [13, 23]: 125 µM
IC50 [13, 24]: 125 µM
IC50 [14, 23]: 125 µM
IC50 [14, 24]: 100 µM
IC50 [15]: 14 µM
IC50 [16]: 125 µM
HAI (M) H1N1 [17]: 0.001 M
IC50 [18, 23]: 180 µM
IC50 [18, 24]: 100 µM
IC50 [19, 23]: 150 µM
IC50 [19, 24]: 125 µM
virus sialidase activity inhibition [20]: completely inhibited
IC50 [20, 23]: 31.3 µM
IC50 [20, 24]: 31.3 µM
IC50 [21]: 5.6 µM

CCCCCCCCCCCCCCCCCC(=O)CC(COC(=O)CCCCCCCCCCCCCCCCC)COP(=O)(O)OCCNCCOC1(C(=O)O)OC(C(O)C(O)CO)C(NC(C)=O)C(O)C1O (centres unmarked) [Compound 8]
HAI (M) H1N1 [17]: >0.001 M

CCCCCCCCCCCCCCCCCC(=O)CC(COC(=O)CCCCCCCCCCCCCCCCC)COP(=O)(O)OCCNCCOC1(C(=O)O)CC(O)C(NC(C)=O)C(C(O)C(O)CO)O1 (centres unmarked) [Compound 6]
Binding assay (%) H3N2 [22]: 25%
HAI (M) H1N1 [17]: 0.001 M

CC(=O)NC1C(O)CC(Oc2ccc([N+](=O)[O-])cc2)(C(=O)O)OC1C(O)C(O)CO (centres unmarked) [Compound 2]
Hydrolysis T½ (hour) 1N sulfuric acid 50° C. ([2]; 1N sulfuric acid, 50° C.): 0.15 h

CCCCCCCCCCCCCCCCCC(=O)CC(COC(=O)CCCCCCCCCCCCCCCCC)COP(=O)(O)OCCNCCOC1(C(=O)O)OC(C(O)C(O)CO)C(NC(C)=O)C(O)C1O (centres unmarked) [Compound 7]
affinity to H3 type virus HA relative to Compound 6 [22]: 144%
HAI (M) H1N1 [17]: 0.001 M
